Measurements as given in patent US20010010822A1, “LIPID COMPLEXES AND LIPOSOMES OF HIGHLY INSOLUBLE PLATINUM COMPLEXES” (priority 1999, published 2001).

Test system: PLATINUM RESISTANT P388 CELL LINE
Test: Anti-tumor activity of DACH-platinum compounds against platinum resistant P388 cell line
Format: in vivo
Conditions: initial tumor burden 1.0 × 10^6

## N.N.[Cl][Pt][Cl] [Cisplatin]
Dose 3.5 mg/kg
  % Increase in Length of Survival: +3%
  % T/C: 103.8%
  Log10 Change in Tumor Burden: +1.7
  Median Day of Death: 13.5
Dose 5.3 mg/kg
  % Increase in Length of Survival: +15%
  % T/C: 115.4%
  Log10 Change in Tumor Burden: +1.5
  Median Day of Death: 15.0
Dose 8.0 mg/kg
  % Increase in Length of Survival: +23%
  % T/C: 123.1%
  Log10 Change in Tumor Burden: +1.5
  Median Day of Death: 16.0
